{"source": "patent US7863415B2", "about": "(The Regents of the University of California, priority 2004, dated 2011)", "key": {"[1]": {"system": "[Ca^2+]i in U87 glioma cells", "test": "[Ca2+]i in U87 glioma cells loaded with fura-2AM, quantitative fluorescent microscopy", "type": "cell-based, human", "conditions": "U87 glioma cells", "description": "Therefore, the levels of [Ca^2+]i in U87 glioma cells loaded with fura-2AM were measured using quantitative fluorescent microscopy. […] The ATP-dependent calcium regulatory mechanisms within U87 glioma cells containing fura-2 were then examined. […] ATP synthase operates in reverse when milimolar concentrations of calcium are stored by the mitochondrion (Nicholls, Bioenergetics, 3, Academic Press, London, 3rd edition (2002)).\nQuantitative fluorescent microscopy of [Ca^2+]i levels. [Ca^2+]i levels can be measured in cells loaded with either fura-2A or fura-2FFAM under the conditions described above."}, "[2]": {"molecular_target": "T1, trypsin (Bos taurus, UniProt P00760)", "T1 construct": "purchased CalBiochem (San Diego, Calif.); host or cells: bovine pancreas", "T1 sequence (P00760 24-246)": "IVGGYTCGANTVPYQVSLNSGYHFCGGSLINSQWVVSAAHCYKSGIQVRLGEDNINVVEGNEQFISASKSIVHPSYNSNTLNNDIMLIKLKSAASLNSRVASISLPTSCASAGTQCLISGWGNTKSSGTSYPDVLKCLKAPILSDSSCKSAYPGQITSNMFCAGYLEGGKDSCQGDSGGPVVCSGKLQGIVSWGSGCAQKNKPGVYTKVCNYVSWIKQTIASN", "test": "Enzyme digestion with trypsin (negative control), LC-MS/ESI", "type": "in vitro ADME, bovine", "conditions": "for Conclusion (Peptidase: Trypsin): 10 μM conjugate, 10 units enzyme, 25° C., pH 7.4, 24 h", "description": "(§1) Compound 3b is a C5am-Gly-peptide conjugate containing two D-amino acids, and compound 3c is a C5am-Gly-peptide conjugate coupled to a peptide to generate an analog of opioid peptides that cross the blood brain barrier (BBB). The resultant conjugates (compounds 3a-c) were tested for selective cleavage by the brain peptidase enkephalinase (neutral endopeptidase 24.11; Calbiochem) via incubation for 24 h in the presence or absence of the enzyme, and aliquots from the reaction solutions were then analyzed by LC-MS to identify the C5am-Gly conjugate (compound 3a), starting material, and enzymatic cleavage products (see, Scheme 3). As negative control experiments, the conjugates were analyzed following treatment with (1) bovine pancreatic trypsin (Calbiochem) or (2) the buffer solutions without enzymes.\n(§2) Enzyme digestion. Endopeptidase 24.11 (neutral, porcine kidney) and trypsin (bovine pancreas) were purchased from CalBiochem (San Diego, Calif.) and used as received. Enzymatic cleavage experiments using endopeptidase 24.11 were conducted at 25° C. in a pH 7.4 Tris buffer (150 mM NaCl, 50 mM Tris, 0.1% Triton X-100) as recommended by the manufacturer (see also, Barnes et al., J. Neurochem., 64:1826-1832 (1995), Gafford et al., Biochemistry, 22:3265-3271 (1983)). Similarly, trypsin cleavage experiments were conducted at 25° C. in pH 7.4 Dulbecco's phosphate buffered saline (Gibco; Grand Island, N.Y.). The digestion reactions included 10 μM of the amiloride-peptide conjugate and 10 units of enzyme in 250 μL of buffer. Direct aliquots were analyzed by LC-MS/ESI following a 24 hour incubation period.\n(§3) Enzyme Digestion Study. Compounds 3a-d were each incubated at 25° C. with 10 units of enkephalinase (endopeptidase 24.11) to determine their susceptibility towards enzymatic cleavage. Reaction aliquots were taken following a 24 hour incubation period and analyzed directly by LC-MS/ESI (Thermo Finnigan LCQ) for the presence of the starting material and the targeted cleavage product, compound 3a (C5am-Gly). […] Since there are no basic amino acid residues in compounds 3a-d, trypsin was employed as a negative control to ensure that any observed cleavage products could be ascribed only to endopeptidase-specific interactions (Jackson, Protein Science, 8:603-613 (1999))."}, "[3]": {"system": "enkephalinase (endopeptidase 24.11)", "test": "Enzyme digestion with enkephalinase, LC-MS/ESI", "type": "in vitro ADME, porcine", "conditions": "for Conclusion (Peptidase: Enkephalinase): 10 μM conjugate, 10 units enzyme, 25° C., pH 7.4, 24 h; for Cleavage by enkephalinase (release of compound 3a): 24 h incubation, LC-MS", "description": "as §1, §2, §3"}, "[4]": {"system": "U87 glioma cells", "test": "Glioma cell death, manual cell counts with trypan blue exclusion", "conditions": "for Glioma Effect: cytotoxic concentration: glioma cells"}, "[5]": {"system": "NHE1 and NCX", "conditions": "NHE1 and NCX inhibitors from the literature; cited from earlier work"}, "[6]": {"system": "U87 glioma cells", "test": "Glioma cell proliferation, manual cell counts with trypan blue", "type": "cell-based, human", "conditions": "glioma cells", "description": "C(5)-amiloride glycine conjugate (C5am-Gly) inhibits NHE1 in U87 glioma cells and is antiproliferative. […] The inhibitory activity of C5am-Gly against NCX was tested and a systematic log dose screen of C5am-Gly against a panel of glioma cells and primary astrocytes was performed.\nManual cell counts with dye exclusion assays. Identical concentrations of glioma cells can be plated on 60 mm dishes and grown until 50% confluent. Following drug treatments, media containing floating cells can be collected in suspension. Adherent cells can be rinsed in calcium- and magnesium-free phosphate-buffered saline (PBS-CMF) and removed by incubation with 0.25% v/v trypsin for 5 minutes (37° C.). Cell suspensions can be combined with the floating fraction and centrifuged at 350×g for 5 minutes. The resulting pellet (one per dish) can be resuspended in equal volumes of PBS-CMF with 0.4% trypan blue and/or 500 nM Sytox Green. 10 μL aliquots of the suspension can be plated on a hemocytometer, and cells can be counted 5 minutes after staining. Simultaneous staining of cells with trypan (TB) and Sytox Green (SG) can be visualized by switching between visible light and fluorescein green."}, "[7]": {"system": "glioma cells and primary astrocytes", "test": "Cell entry by confocal microscopy", "type": "in vitro ADME"}, "[8]": {"molecular_target": "NHE1 (Homo sapiens, UniProt P19634)", "sequence (P19634 whole entry)": "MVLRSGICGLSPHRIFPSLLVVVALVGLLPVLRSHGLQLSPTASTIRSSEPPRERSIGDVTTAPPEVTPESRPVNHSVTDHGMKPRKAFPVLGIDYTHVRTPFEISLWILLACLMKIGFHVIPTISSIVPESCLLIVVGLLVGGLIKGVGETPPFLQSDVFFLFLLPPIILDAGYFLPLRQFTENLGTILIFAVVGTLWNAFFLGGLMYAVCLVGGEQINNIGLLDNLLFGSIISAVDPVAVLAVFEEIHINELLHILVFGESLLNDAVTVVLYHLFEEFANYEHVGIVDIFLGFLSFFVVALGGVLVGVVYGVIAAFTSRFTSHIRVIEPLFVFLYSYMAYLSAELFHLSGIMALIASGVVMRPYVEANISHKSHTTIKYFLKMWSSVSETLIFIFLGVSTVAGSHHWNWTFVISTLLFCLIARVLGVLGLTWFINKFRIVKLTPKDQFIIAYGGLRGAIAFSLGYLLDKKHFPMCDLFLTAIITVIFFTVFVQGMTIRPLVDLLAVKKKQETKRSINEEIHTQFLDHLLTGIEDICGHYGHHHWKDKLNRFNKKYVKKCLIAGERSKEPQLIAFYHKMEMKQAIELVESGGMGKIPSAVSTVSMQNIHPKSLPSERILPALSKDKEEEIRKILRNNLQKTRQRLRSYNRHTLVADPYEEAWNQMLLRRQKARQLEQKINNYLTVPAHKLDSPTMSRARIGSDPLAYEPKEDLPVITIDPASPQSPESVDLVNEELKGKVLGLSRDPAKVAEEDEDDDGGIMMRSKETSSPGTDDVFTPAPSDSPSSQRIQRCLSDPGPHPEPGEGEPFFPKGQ", "test": "NHE1 inhibition: sodium-dependent pHi recovery in BCECF-loaded U87 glial cells after ammonium chloride pre-pulse", "type": "cell-based", "design": "Sodium-dependent proton extrusion in U87 glial cells and in primary astrocytes is mediated by the type 1 sodium proton exchanger (NHE1); endogenous in cells; host or cells: U87 human glioma cells", "conditions": "U87 glial cells; sodium-dependent pHi recovery without bicarbonate; read-out: IC50 (μM) +/− SD (NHE inhibition)", "description": "Intracellular pH Measurements. U87 glial cells were grown on glass coverslips and incubated for 30 minutes at 37° C. with the pH-sensitive dye, 2′,7′-bis(2-carboxyethyl)-5(6)-carboxyfluorescein-AM (BCECF-AM; Molecular Probes, OR). Cells were rinsed with HEPES Ringer buffer twice and maintained at 37° C. for an additional 15 minutes to permit intracellular hydrolysis of the AM ester; trapping BCECF within the cells. Cells on coverslips were placed in a Hitachi F2000 fluorescent spectrophotometer and excited at 440 and 507 nm with fluorescent emissions recorded at 535 nm (Hegde et al., J. Pharmacol. Exp. Ther., 310:67-74 (2004)).\nNHE inhibition by compounds 3a and 3c was evaluated using intracellular pH (pHi) measurements in the U87 human glial cell line (Hegde et al., supra). Cells loaded with BCECF were then acidified using the ammonium chloride pre-pulse method (Roos et al., Physiol Rev, 61:296-434 (1981)). The subsequent sodium-dependent recovery of pHi by these cells in the absence of bicarbonate was monitored using a spectrofluorometer. Sodium-dependent proton extrusion in U87 glial cells and in primary astrocytes is mediated by the type 1 sodium proton exchanger (NHE1) (McLean et al., supra; Hegde et al., supra) and was monitored in the presence or absence of compound 3a or 3c.\nIC50 drug determinations for NHE1. This method utilizes spectrofluorometric measurements of [H^+]i as described above. The ammonium chloride prepulse method can be used to acidify cells in the presence of HR that is sodium-substituted with NMDG. Perfusion of the acidified cells with HR that contains sodium causes activation of NHE1 that is inhibited in a concentration-dependent fashion as described in McLean et al., supra."}}, "note": "“Also recorded” adds a separate entry of the source. Starred links: 1 amine or outer side, 2 acyl side, 3 side chain; linkers in the order of their positions; H or OH if unused. Non-standard residues stand in square brackets, D forms with d. Residues, ends and D or L forms follow the SMILES beside them. No end group written: not given here. X1 = N=C(N)NC(=O)c1nc(Cl)c(N(CC(=O)[*:2])[*:1])nc1N", "data": [{"compound": "C[C@@H]1O[C@@H](O[C@H]2C[C@@H](O)[C@]3(CO)[C@H]4[C@H](O)C[C@]5(C)[C@@H](C6=CC(=O)OC6)CC[C@]5(O)[C@@H]4CC[C@]3(O)C2)[C@H](O)[C@H](O)[C@H]1O", "note": "[oubain]", "values": [{"measurement": "Effect on [Ca2+]i", "setting": "[1]", "value": "did not demonstrably alter"}]}, {"compound": "CC[C@H]1/C=C/C=C/C[C@@H](C)[C@H](O)[C@@](C)(O)C(=O)[C@@H](C)[C@H](O)[C@@H](C)C(=O)[C@@H](C)[C@H](O)[C@@H](C)/C=C/C(=O)O[C@@H]2[C@H](C)[C@H](CC1)O[C@]1(CC[C@H](C)[C@H](C[C@@H](C)O)O1)[C@H]2C", "note": "[oligomycin]", "values": [{"measurement": "[Ca2+]i transients", "setting": "[1]; F0F1ATPase inhibition", "value": "> 800", "unit": "nM"}]}, {"compound": "C/C=C(/C)C(=O)O[C@H]1C(C)=C2[C@H]([C@@H]1OC(=O)CCCCCCC)[C@@](C)(OC(C)=O)C[C@H](OC(=O)CCC)[C@@]1(O)[C@H]2OC(=O)[C@@]1(C)O", "note": "[thapsigargin]", "values": [{"measurement": "Effect on [Ca2+]i", "setting": "[1]", "value": "modest and transient increase"}]}, {"compound": "Compound 3d: C(5)-amiloride peptide conjugate prepared according to Scheme 1 with peptide sequence Gly-Gly-Gly-Phe-Leu (GGGFL; not fully specified (N-terminus); printed as Gly-Gly-Gly-Phe-Leu; also: C(5)-amiloride conjugate)", "values": [{"measurement": "Conclusion (Peptidase: Trypsin)", "setting": "[2]", "value": "Trypsin resistant"}, {"measurement": "Conclusion (Peptidase: Enkephalinase)", "setting": "[3]", "value": "Enkephalinase resistant"}, {"measurement": "Cleavage by enkephalinase (release of compound 3a)", "setting": "[3]", "value": "did not liberate compound 3a"}]}, {"compound": "CS(=O)(=O)O.CS(=O)(=O)c1cc(C(=O)N=C(N)N)ccc1N1CCCCC1", "note": "[HOE694]", "values": [{"measurement": "Effect on [Ca2+]i", "setting": "[1]", "value": "did not alter"}]}, {"compound": "C[C@H](CCC(=O)O)C[C@H](C)C[C@H](C)C(=O)/C=C(\\O)[C@H](C)C[C@H](C)C/C=C/[C@@H](C)[C@@H](O)[C@@H](C)[C@@H](O)C[C@@H]1CC[C@@](C)([C@H]2CC[C@@](C)([C@@H](C)O)O2)O1", "note": "[Ionomycin]", "values": [{"measurement": "Time to kill glioma cells", "setting": "[4]", "value": "90 to 180", "unit": "min"}]}, {"compound": "N=C(N)SCCc1ccc(OCc2ccc([N+](=O)[O-])cc2)cc1", "note": "[KB-R7943]", "values": [{"measurement": "Rel. Activity", "setting": "[5]", "value": "NCX > NHE (blocks Ca^2+ influx)"}, {"measurement": "Glioma Effect: antiproliferative concentration", "setting": "[6]", "value": "not antiproliferative"}, {"measurement": "Effect of pretreatment on [Ca2+]i after calcium release from mitochondrial stores", "setting": "[1]; FCCP or oligomycin", "value": "did not cause a persistent increase"}, {"measurement": "Glioma Effect: cytotoxic concentration", "setting": "[4]", "value": "not cytotoxic"}, {"measurement": "Cytotoxicity to glioma cells", "setting": "[4]; manual cell counts, trypan blue cell exclusion assay", "value": "non-toxic"}]}, {"compound": "N=C(NC(=O)CN)NC(=O)c1nc(Cl)c(N)nc1N", "note": "[C2am-Gly]", "values": [{"measurement": "Cell entry by confocal microscopy", "setting": "[7]", "value": "not visualized entering"}, {"measurement": "Effect on [Ca2+]i", "setting": "[1]", "value": "increased"}, {"measurement": "Potency of killing glioma cells relative to amiloride", "setting": "[4]", "value": "greater than 50 times"}, {"measurement": "Concentration that killed U87 glioma cells", "setting": "[4]; U87 glioma cells, C2am-Gly within 24 h", "value": "≤ 10", "unit": "µM"}, {"measurement": "Glioma Effect: cytotoxic concentration", "setting": "[4]", "value": "≦10 μM cytotoxic"}]}, {"compound": "CC(C)C[C@H](NC(=O)[C@H](Cc1ccccc1)NC(=O)CNC(=O)CNC(=O)CNC(=O)CNc1nc(N)c(C(=O)NC(=N)N)nc1Cl)C(=O)O", "note": "[Compound 3c, C5am-Gly-Gly-Gly-Gly-Phe-Leu-OH] (H-[X1]GGGFL-OH)", "values": [{"measurement": "Conclusion (Peptidase: Trypsin)", "setting": "[2]", "value": "Trypsin-mediated cleavage"}, {"measurement": "Cleavage by trypsin (release of compound 3a)", "setting": "[2]; 24 h incubation, LC-MS", "value": "did not generate C5am-Gly; also recorded: did not release compound 3a"}, {"measurement": "IC50", "setting": "[8]", "value": "> 100", "unit": "µM"}, {"measurement": "Conclusion (Peptidase: Enkephalinase)", "setting": "[3]", "value": "Enkephalinase-mediated"}, {"measurement": "Cleavage by enkephalinase (release of compound 3a)", "setting": "[3]", "value": "selectively cleaved; also recorded: released compound 3a; also recorded: complete digestion"}]}, {"compound": "CCOc1ccc(Oc2ccc(OCc3cc(F)ccc3F)cc2)c(N)c1", "note": "[SEA0400]", "values": [{"measurement": "Rel. Activity", "setting": "[5]", "value": "NCX only no NHE activity (Ca^2+ influx mode > Ca^2+ efflux mode)"}]}]}
